Measured values as given in EP2955191A1, “Compound, composition and method for treating and/or ameoliorating kidney disease” (Trineo Biotechnology Co. Ltd, priority 2014, dated 2015).

Assays:
MDCK cells = test: Cisplatin induced in vitro kidney cell apoptosis (mitochondria membrane potential, DiOC6 staining); assay type: cell-based, canine; settings: given after 50 µM cisplatin for 4 hrs, FIG 1A
Method: Madin-Darby canine kidney (MDCK) cells (1.5 x 10^5 cells/mL) were cultured and maintained in Dulbecco's modified Eagle medium (DMEM) supplemented with 10% fetal bovine serum (FBS), 100 units/mL penicillin, […] streptomycin, 2mM L-glutamine, non-essential amino acids and sodium pyruvate, and maintained in 5% CO2 at 37 °C until reached 80% confluence, then were subject to cell passages.
MDCK cells were cultured in according to procedures described in the "Materials and Methods" section. To start the experiment, MDCK cells were first incubated with 50 µM cisplatin for 4 hrs, then various concentrations of the compound of formula (I) (50µg/mL or 100 µg/mL) or the YKII-10 composition of example 1.2 (25 to 100 µg/mL) were given to cisplatin-treated cells and further incubated for another 24 hrs. Mitochondria membrane potentials were then measured by staining the live cells with fluorescent dyes (e.g., 50 nM DiOC6), in which 50 nM DiOC6 were added to cells and incubated at 37 °C for 30 min. The cells were then washed twice with phosphate buffer solution before subjecting to microscopy analysis using the inverted fluorescent microscope. […] Results are illustrated in FIGs 1A and 1B.

Blb/c mice = test: Lipopolysaccharide (LPS) induced in vivo kidney inflammation (urine protein); settings: oral 100 mg/Kg; LPS 2.5 mg/Kg/day i.p. for 5 days; urine on fifth and tenth day; FIG 3
Method: Blb/c mice were kept in pathogen-free environment under 12:12 light-dark cycle with food (laboratory rodent diet 5001 purchased from PMI Nutrition International Inc. MO, USA) and water (i.e., distilled water) provided ad libitum, ambient temperature and relative humidity were respectively set at 22±3 °C and 50±20%. All procedures involving animal studies of the present disclosure comply with the "Guideline for the Care and Use of Laboratory Animals" issued by The Chinese-Taipei Society of Laboratory Animal Sciences.
In this example, to evaluate the therapeutic or prophylactic function of the compositon of example 1.2, animals were first injected intraperitoneally with lipopolysaccharide (LPS) to induce in vivo kidney inflammation before being subect to the treatment of the compositon of example 1.2.
Blb/c mice (6 weeks old) were randomly assigned to two groups, and injected intraperitoneally with lipopolysaccharide (LPS, 2.5 mg/Kg/day) for 5 consecutive days so as to induce kidney inflammation. […] Unine sampls were respectively collected on the fifth and the tenth day after the experiment started, and analyzed for the level of urine protein therein. […]

C[C@H](CCC(=O)O)[C@H]1C[C@H](O)[C@@]2(C)C3=C(C(=O)C[C@]12C)[C@@]1(C)CCC(=O)C(C)(C)[C@@H]1C[C@@H]3O [compound of formula (I)]
reversing cisplatin-induced apoptosis of MDCK cell (MDCK cells; 50µg/mL or 100 µg/mL for 24 hrs): capable of reversing
recovery on the membrane potential (MDCK cells; 100 µg/mL for 24 hrs, MDCK cells): about 80%
urine protein level (Blb/c mice): effective in reducing
